A short description of series [1]: Comparison of RD2 metabolite profiles across species: cynomolgus liver microsomes. It is filed as in vitro ADME, cynomolgus monkey. As for the experimental part:
(§1) The preparation of the media was performed as described before in Elfgen et al.[24]. Preparation of simulated gastric and intestinal fluid (SGF & SIF) was done according to the European Pharmacopoeia 7.0. Plasma samples were obtained from human blood of a volunteer donor. Pooled human liver microsomes were purchased from Sekisui XenoTech (Kansas City, USA; H1000, Lot: 0710494 and 1210270; H1500, Lot: 1210079), from Sigma-Aldrich (St. Louis, USA; M0692, Lot: SLBL1433V; M0567, Lot: SLBR2706V and SLBN7300V) and from Gibco, Thermo Fisher Scientific (Waltham, USA; HMMCPL, Lot: PL050; HMMCPM, Lot: PL039). Pooled Sprague Dawley rat liver microsomes were purchased from Sigma-Aldrich (St. Louis, USA; M9066, Lot: SLBN0707V) and from Gibco, Thermo Fisher Scientific (Waltham, USA; RTMCPL, Lot: RT053). Pooled cynomolgus monkey liver microsomes were purchased from Gibco, Thermo Fisher Scientific (Waltham, USA; MKMCPL, Lot: MK062) and from Sekisui XenoTech (Kansas City, USA; P2000, Lot: 1210334). The liver microsomes were diluted in an NADPH regenerating system (NRS).
For the stability tests, 150 µM RD2 or L-RD2 was incubated in SGF, SIF, human plasma and human liver microsomes in triplicate at 37 °C with slight shaking for different time periods. To prevent microbial contaminations in long-term plasma incubations, 0.1% sodium azide was added to the solutions. Microsomal long-term activity was examined by incubating microsomes without peptide for up to 24 h and adding L-RD2 after 8 and 24 h. The ability to degrade L-RD2 served as indicator for their activity. For the comparison of RD2 metabolite profiles across species, 150 µM RD2 was incubated in human, rat and cynomolgus liver microsomes at 37 °C for 2 and 24 h. […]
For the comparison of RD2 metabolite profiles across species (see 2.3), mobile phases were acetonitrile (A) and water (B) each supplemented with 0.1% TFA. […] The amount of the purified HSM-3 was calculated based on a calibration curve of 10 to 100 µM RD2 extracted from human liver microsomes.
A general note: Liver microsomes are a subcellular fraction often used to study metabolism.

Series [2] concerns the target T1, CYP1A (Homo sapiens, UniProt P05177).
T1 sequence (P05177 2-516): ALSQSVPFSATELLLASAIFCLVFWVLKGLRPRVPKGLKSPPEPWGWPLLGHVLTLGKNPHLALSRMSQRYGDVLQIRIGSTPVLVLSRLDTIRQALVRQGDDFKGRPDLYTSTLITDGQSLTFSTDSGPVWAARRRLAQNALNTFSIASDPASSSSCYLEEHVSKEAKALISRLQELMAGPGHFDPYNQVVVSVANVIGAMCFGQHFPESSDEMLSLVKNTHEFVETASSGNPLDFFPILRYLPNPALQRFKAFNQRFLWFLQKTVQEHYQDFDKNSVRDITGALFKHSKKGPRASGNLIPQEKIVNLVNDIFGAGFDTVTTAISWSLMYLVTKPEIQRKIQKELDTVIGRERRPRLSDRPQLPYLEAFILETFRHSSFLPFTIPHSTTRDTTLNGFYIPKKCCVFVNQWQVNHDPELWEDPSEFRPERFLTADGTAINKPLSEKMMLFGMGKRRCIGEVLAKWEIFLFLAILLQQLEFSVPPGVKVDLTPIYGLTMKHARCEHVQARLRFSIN
The experiment in a line: CYP isoform inhibition in human liver microsomes (Cyprotex).
Description: The experiments were performed by Cyprotex. […] The reactions were terminated by methanol and the generated metabolites were monitored by LC-MS/MS or fluorescence. […] All assays were performed sevenfold. […] For all other substrates, the termination plates were centrifuged at 2,500 rpm and 4 °C for 30 min and aliquots of the supernatants were combined and transferred to fresh 96-well plates. Formic acid in deionized water (final concentration 0.1%) containing internal standard was added to the supernatants prior to cassette analysis by LC-MS/MS. A decrease in the formation of the metabolite compared to the vehicle control was used to calculate the IC50 values.

Series [3] is described as follows: MTT cell viability assay. Type of series: cell-based, rat. Particulars: rat, cell viability. Here is the method: (§2) Rat PC12 (pheochromocytoma) cells (Leibniz Institute DSMZ, Braunschweig, Germany) were cultivated in Dulbecco’s Modified Eagle Medium (DMEM) supplemented with 10% fetal bovine serum, 5% horse serum and 1% penicillin-streptomycin. 10,000 cells per well were seeded on collagen A-coated 96-well plates (Thermo Fisher Scientific, Waltham, USA) and incubated in a 95% humidified atmosphere with 5% CO2 at 37 °C for 24 h. Samples with untreated RD2 and RD2 or HSM-3 purified from human liver microsomes (see 2.8) in 10 mM sodium phosphate buffer (pH 7.4) were prepared. Buffer without peptides and Triton X-100 (cytotoxic compound) served as controls. The samples were added to the PC12 cells in quadruple and incubated in 95% humidified atmosphere with 5% CO2 at 37 °C for 24 h. Final concentrations were 2 µM untreated RD2, purified RD2, purified HSM-3 and 0.125% Triton X-100. Cell viability was then measured using the Cell Proliferation Kit I (MTT) (Roche, Basel, Switzerland) according to the manufacturer’s instruction. The final absorbance of the formazan product was determined as the absorbance at 570 nm subtracted by the absorbance at 660 nm. All results were normalized to cells that were treated with buffer only. The experiments were performed in triplicate.
On the technique in general: Formazan colour is commonly taken as a measure of viable cells.

Series [4] relates to Rat PC12 (pheochromocytoma) cells. The experiment in a line: MTT cell viability assay. Type of series: cell-based. The settings on record: rat, 24 h, 2 µM. Here is the method:
as §2

For series [5], the system named is rat. The arrangement: method as in complete study will be published elsewhere. The settings on record: oral, up to high doses, ref complete study will be published elsewhere; cited from earlier work.
A short description of series [6]: Stability in simulated gastric fluid (SGF), RP-HPLC. Type of series: in vitro ADME. Particulars: 37 °C, read-out: unmetabolized peptide remaining (remained stable). As for the experimental part: as §1, with “The liver microsomes were diluted in an NADPH regenerating system (NRS).” left out
For sample analysis from stability tests (see 2.3), mobile phases were acetonitrile (A) and water (B) each supplemented with 0.15% trifluoroacetic acid (TFA) (v/v). The samples were measured isocratically at 10% solvent A for 30 min. […] A chromatographic metabolite profile of L-RD2 in SIF was recorded with the same mobile phases but using a gradient from 0 to 30% solvent A in 30 min.

Molecules are shown by their SMILES. Non-standard residues stand in square brackets, D forms with d. Residues, ends and D or L forms follow the SMILES beside them.

Results on 1 molecule are retold here after publication PMC6450887, “Metabolic resistance of the D-peptide RD2 developed for direct elimination of amyloid-β oligomers” (Scientific Reports, 2019).

Take `CC(C)C[C@@H](NC(=O)[C@H](NC(=O)[C@H]1CCCN1)[C@H](C)O)C(=O)N[C@H](Cc1c[nH]cn1)C(=O)N[C@@H](C(=O)N[C@H](Cc1c[nH]cn1)C(=O)N[C@H](CC(N)=O)C(=O)N[C@H](CCCNC(=N)N)C(=O)N[C@H](CCCNC(=N)N)C(=O)N[C@H](CCCNC(=N)N)C(=O)N[C@H](CCCNC(=N)N)C(=O)N[C@H](CCCNC(=N)N)C(N)=O)[C@H](C)O` [RD2, ptlhthnrrrrr] (H-[dP][dT][dL][dH][dT][dH][dN][dR][dR][dR][dR][dR]-NH2): the “metabolization of RD2 after 2 h” value in series [1] (cynomolgus liver microsomes, 150 µM, 2 h) is “unmetabolized”. Moreover, in series [1] (monkey, pooled cynomolgus monkey liver microsomes, cynomolgus samples, 24 h, read-out: decrease of the intensity of the RD2 peak), the metabolised at 24 h, 150 µM was 9 ± 2%. Further, in series [2] (concentration range 0 to 25 µM), the “inhibition of CYP1A” value was “did not inhibit”. Further, in series [2] (human, human liver microsomes), the inhibition (in general, the relative decrease from the control value, in per cent) at 0.25 µM was 6.18%; the inhibition at 1 µM came out at 9.42%; the inhibition at 2.5 µM was 1.34%; the inhibition at 10 µM is -0.842%. Moreover, the inhibition at 25 µM in series [2] (human, human liver microsomes) was -0.198%. Also, in series [3], the viability (in general, the share of living cells, or the viability signal relative to a control) at 24 h, 2 µM is 99 ± 4%. Also, in series [4], the cell viability (commonly a per cent measure of how many cells are alive, often set against a control) was found to be 93 ± 6%. Besides, the “toxic effects of orally administered RD2” value in series [5] is reported as “does not cause toxic effects up to high doses”. In addition, in series [6], the fraction remaining (commonly what is left of the initial amount, in per cent) at 24 h, 150 µM was no less than 97%.
